This note sets out measurements from ChEMBL document CHEMBL1141043, “Novel, selective indole-based ECE inhibitors: lead optimization via solid-phase and classical synthesis” (Bioorg Med Chem Lett, 2005).

What is called IC50 is the concentration needed to halve the response being measured.

The first experiment concerns the target T1, Endothelin-converting enzyme 1 (Homo sapiens, UniProt P42892).
T1 sequence (P42892 whole entry): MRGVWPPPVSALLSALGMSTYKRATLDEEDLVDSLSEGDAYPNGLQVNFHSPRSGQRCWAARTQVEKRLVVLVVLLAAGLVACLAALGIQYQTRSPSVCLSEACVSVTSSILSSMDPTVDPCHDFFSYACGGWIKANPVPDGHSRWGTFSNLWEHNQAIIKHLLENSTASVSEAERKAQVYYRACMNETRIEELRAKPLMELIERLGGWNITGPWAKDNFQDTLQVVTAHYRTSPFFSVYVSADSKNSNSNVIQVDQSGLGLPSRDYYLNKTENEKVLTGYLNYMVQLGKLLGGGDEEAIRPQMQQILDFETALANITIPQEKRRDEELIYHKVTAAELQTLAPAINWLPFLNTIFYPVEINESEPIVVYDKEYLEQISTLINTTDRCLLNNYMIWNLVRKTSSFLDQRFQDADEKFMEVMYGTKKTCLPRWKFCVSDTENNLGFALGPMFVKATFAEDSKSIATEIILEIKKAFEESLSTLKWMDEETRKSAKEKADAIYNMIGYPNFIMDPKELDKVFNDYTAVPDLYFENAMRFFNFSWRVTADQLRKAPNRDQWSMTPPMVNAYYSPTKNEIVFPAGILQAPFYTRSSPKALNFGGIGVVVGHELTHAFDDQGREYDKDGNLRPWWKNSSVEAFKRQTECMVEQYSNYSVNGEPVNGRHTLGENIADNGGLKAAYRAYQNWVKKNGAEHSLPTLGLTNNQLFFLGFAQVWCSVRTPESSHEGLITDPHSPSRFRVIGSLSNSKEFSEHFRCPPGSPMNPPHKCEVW
Kind of experiment: Inhibitory concentration against endothelin converting enzyme 1 using bradykinin-derived substrate.
In the case of `CC(C)(C)CC(=O)Nc1ccc2c(c1)cc(-c1nc(-c3ccccc3)no1)n2Cc1ccccc1F`, the 50% inhibitory concentration (IC50) is greater than 10 µM.
The compound `CC(C)(C)CC(=O)Nc1ccc2c(c1)cc(CNc1ccccc1)n2Cc1ccccc1F` yielded an IC50 greater than 10 µM.
Consider `CC(C)(C)CC(=O)Nc1ccc2c(c1)c(C(=O)Nc1ccccc1)cn2Cc1ccccc1F`, for which the IC50 is greater than 10 µM.
Compound `CC(C)(C)CC(=O)Nc1ccc2c(c1)cc(C(=O)Nc1ccn[nH]1)n2Cc1ccccc1F` yielded an IC50 greater than 10 µM.

The target of another experiment is T1, Endothelin-converting enzyme 1. As to the kind of experiment: Inhibitory concentration against endothelin converting enzyme 1 using big-ET-1 substrate in ELISA.
On to `CC(C)(C)CC(=O)Nc1ccc2c(c1)cc(C(=O)Nc1cccc(C(=O)Nc3ccc(S(N)(=O)=O)cc3)c1)n2Cc1ccccc1F`, for which the IC50 worked out at 39 nM.
The compound `C[S+]([O-])c1ccc(NC(=O)c2cccc(NC(=O)c3cc4cc(NC(=O)CC(C)(C)C)ccc4n3Cc3ccccc3F)c2)cc1` (stereo not drawn) had an IC50 of 66 nM.
The compound `CC(C)(C)CC(=O)Nc1ccc2c(c1)cc(C(=O)Nc1cccc(C(=O)Nc3ccc(S(C)(=O)=O)cc3)c1)n2Cc1ccccc1F` showed an IC50 of 120 nM.
On the same count and under the same terms, the value for `CNS(=O)(=O)c1ccc(NC(=O)c2cccc(NC(=O)c3cc4cc(NC(=O)CC(C)(C)C)ccc4n3Cc3ccccc3F)c2)cc1` was 150 nM.
